Tests used:
Assay in all cases: relative viability (nuclei count vs DMSO), 5 days (fraction); higher = more cells survive
CAL-12T = system: CAL-12T
Summary of the method: (§1)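 Cells from lung cancer lines were seeded into 1536-well plates and, one day later, dosed by pin tool. Treatments were either a single drug or a fixed dose of an anchor drug with five library-drug doses (not always all listed) in √10 steps. After 5 days, nuclei were stained in a one-step fixation (final 0.05% Triton X-100, 1% formaldehyde, 1 ug/ml Hoechst) and counted on 4× images, and relative viability is the treated-to-vehicle nuclei ratio, as the median of duplicate plates.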

NCI-H1650 = system: NCI-H1650
Summary of the method: as §1

A549 = system: A549
Summary of the method: as §1

IA-LM = system: IA-LM
Summary of the method: as §1

A-427 = system: A-427
Summary of the method: as §1

NCI-H1299 = system: NCI-H1299
Summary of the method: as §1

NCI-H1703 = system: NCI-H1703
Summary of the method: as §1

LK-2 = system: LK-2
Summary of the method: as §1

Calu-6 = system: Calu-6
Summary of the method: as §1

NCI-H1734 = system: NCI-H1734
Summary of the method: as §1

UMC-11 = system: UMC-11
Summary of the method: as §1

NCI-H2009 = system: NCI-H2009
Summary of the method: as §1

EBC-1 = system: EBC-1
Summary of the method: as §1

`Cc1sc2c(c1C)C(c1ccc(Cl)cc1)=N[C@@H](CC(=O)OC(C)(C)C)c1nnc(C)n1-2` [JQ1] + CS(=O)(=O)CCNCc1ccc(-c2ccc3ncnc(Nc4ccc(OCc5cccc(F)c5)c(Cl)c4)c3c2)o1 [Lapatinib] (partner 2 µM) showed a relative viability (CAL-12T; first compound 0.04 µM) of 0.748, a relative viability (CAL-12T; first compound 0.4 µM) of 0.541 and a relative viability (CAL-12T; first compound 1.265 µM) of 0.383. For the same molecule, the relative viability (CAL-12T; first compound 4 µM) was 0.463, the relative viability (NCI-H1650; first compound 0.04 µM) was 0.704 and the relative viability (NCI-H1650; first compound 0.1265 µM) was 0.469. The relative viability (NCI-H1650; first compound 0.4 µM) was 0.316, the relative viability (NCI-H1650; first compound 1.265 µM) was 0.204 and the relative viability (NCI-H1650; first compound 4 µM) was 0.253. For the same molecule, the relative viability (A549; first compound 0.04 µM) was 0.923, the relative viability (A549; first compound 0.1265 µM) was 0.902 and the relative viability (A549; first compound 0.4 µM) was 1.04. For the same molecule, the relative viability (A549; first compound 1.265 µM) was 0.553, the relative viability (A549; first compound 4 µM) was 0.358 and the relative viability (IA-LM; first compound 0.04 µM) was 0.63. For the same molecule, the relative viability (IA-LM; first compound 0.1265 µM) was 0.32, the relative viability (IA-LM; first compound 0.4 µM) was 0.123 and the relative viability (IA-LM; first compound 1.265 µM) was 0.0937. It also gave a relative viability (IA-LM; first compound 4 µM) of 0.116, a relative viability (A-427; first compound 0.04 µM) of 0.925 and a relative viability (A-427; first compound 0.1265 µM) of 0.916. The relative viability (A-427; first compound 0.4 µM) was 1.08, the relative viability (A-427; first compound 1.265 µM) was 1.02 and the relative viability (A-427; first compound 4 µM) was 0.696. It also gave a relative viability (NCI-H1299; first compound 0.04 µM) of 0.975, a relative viability (NCI-H1299; first compound 0.1265 µM) of 0.802 and a relative viability (NCI-H1299; first compound 0.4 µM) of 0.837. It also gave a relative viability (NCI-H1299; first compound 1.265 µM) of 0.391, a relative viability (NCI-H1299; first compound 4 µM) of 0.316 and a relative viability (NCI-H1703; first compound 0.04 µM) of 1.07. The relative viability (NCI-H1703; first compound 0.1265 µM) was 0.764, the relative viability (NCI-H1703; first compound 0.4 µM) was 1.2 and the relative viability (NCI-H1703; first compound 1.265 µM) was 0.47. It also gave a relative viability (NCI-H1703; first compound 4 µM) of 0.432, a relative viability (LK-2; first compound 0.04 µM) of 0.886 and a relative viability (LK-2; first compound 0.1265 µM) of 0.896. It also gave a relative viability (LK-2; first compound 0.4 µM) of 0.456, a relative viability (LK-2; first compound 1.265 µM) of 0.177 and a relative viability (LK-2; first compound 4 µM) of 0.286. It also gave a relative viability (Calu-6; first compound 0.04 µM) of 1.11, a relative viability (Calu-6; first compound 0.1265 µM) of 0.9 and a relative viability (Calu-6; first compound 0.4 µM) of 0.999. For the same molecule, the relative viability (Calu-6; first compound 1.265 µM) was 0.598, the relative viability (Calu-6; first compound 4 µM) was 0.564 and the relative viability (NCI-H1734; first compound 0.04 µM) was 1.08. It also gave a relative viability (NCI-H1734; first compound 0.1265 µM) of 0.908, a relative viability (NCI-H1734; first compound 0.4 µM) of 1.03 and a relative viability (NCI-H1734; first compound 1.265 µM) of 0.657. The relative viability (NCI-H1734; first compound 4 µM) was 1.04, the relative viability (UMC-11; first compound 0.04 µM) was 0.876 and the relative viability (UMC-11; first compound 0.1265 µM) was 0.757. For the same molecule, the relative viability (UMC-11; first compound 0.4 µM) was 0.419, the relative viability (UMC-11; first compound 1.265 µM) was 0.255 and the relative viability (UMC-11; first compound 4 µM) was 0.271. For the same molecule, the relative viability (NCI-H2009; first compound 0.04 µM) was 0.961, the relative viability (NCI-H2009; first compound 0.1265 µM) was 0.412 and the relative viability (NCI-H2009; first compound 0.4 µM) was 0.336. The relative viability (NCI-H2009; first compound 1.265 µM) was 0.285, the relative viability (NCI-H2009; first compound 4 µM) was 0.251 and the relative viability (EBC-1; first compound 0.04 µM) was 0.205. The relative viability (EBC-1; first compound 0.1265 µM) was 0.208, the relative viability (EBC-1; first compound 0.4 µM) was 0.172 and the relative viability (EBC-1; first compound 1.265 µM) was 0.152. It also gave a relative viability (EBC-1; first compound 4 µM) of 0.148.

Reference: the supplement of paper PMC10307832
